The results in this text go back to patent US9726662B2, “Assay for drug discovery based on in vitro differentiated cells” (AXIOGENESIS AG, priority 2004, dated 2017).

Non-standard residues stand in square brackets, D forms with d. Residues, ends and D or L forms follow the SMILES beside them. No end group written: not given here.

Assay [1] deals with ES cell-derived cardiomyocytes. Briefly: Interference of compounds with ET-1- or PE-induced hypertrophy of ES cell-derived cardiomyocytes (ANF/BNP RT-PCR).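 For all read-outs here: mRNA levels of ANF and BNP quantified from RT-PCR products by densitometry of bands after agarose gel separation.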 The settings on record: for ANF induction (up-regulation) upon ET-1 stimulation, in words / BNP induction (up-regulation) upon ET-1 stimulation, in words: 100 nM ET-1, 24 h; for ANF induction (up-regulation) upon ET-1 stimulation, in words / BNP induction (up-regulation) upon ET-1 stimulation, in words / ANF induction (up-regulation) upon PE stimulation, in words / BNP induction (up-regulation) upon PE stimulation, in words: compound concentration as in Table 1, summary of Table 1; for ANF induction (up-regulation) upon PE stimulation, in words / BNP induction (up-regulation) upon PE stimulation, in words: 100 μM PE. The assay is classed as cell-based, mouse.
Protocol: PCR products were separated by agarose gel electrophoresis and band intensity was analysed using the BioDocAnalyze system (Biometra).
ES cell-derived cardiomyocytes were stimulated with either 100 nM endothelin-1 (ET-1) or 100 μM phenylephrine (PE) in the presence of the compounds indicated. After 24 hours expression of ANF and BNP mRNA was analyzed by RT-PCR.

The test system of assay [2] is ES cell-derived cardiomyocytes. Description: Size of ES cell-derived cardiomyocytes upon hypertrophic stimulation (microscopy, FIG. 1). The assay is classed as cell-based. The following applies: 24 h serum starvation, then 24 h stimulation; endothelin-1 100 nM or phenylephrine 200 μM; on inactivated mouse embryonic fibroblasts. On the procedure: (§1) Hypertrophic cardiomyocytes in that cell culture system are characterized by increased size, increased protein synthesis, increase in sarcomeric assembly and reexpression of a fetal gene program, e.g. enhanced expression of the ANF (atrial natriuretic factor) gene. In order to test if embryonic stem (ES) cell-derived cardiomyocytes display similar features upon stimulation, the following experiments were performed. Green fluorescent cardiomyocytes were generated in accordance with the teachings of in international applications WO99/01552 and WO02/051987 in the following way. ES cells (line D3, ATCC, CRL 1934) that were transfected with a bi-cistronic vector containing the genes for green fluorescent protein (GFP) and puromycin-resistance under the transcriptional control of the […] heavy chain promoter (see WO02/051987), were induced to form aggregates (embryonic bodies, EBs) in the absence of LIF either according to the method in WO99/01552 and WO2/051987, respectively, or as described in European patent application no. 03015401.7. EBs were cultured for 9 days in IMDM (Invitrogen) supplemented with 20% FCS (Invitrogen, batch controlled) at 37° C., 5% CO2 and 95% humidity on 10 cm bacteriological dishes (Greiner). Subsequently, puromycin (Sigma, 2.5 μg/ml) was added to the cell culture medium and cells were cultured for further 10 days. […]

Assay [3] deals with ES cell-derived cardiomyocytes. Description: Sarcomeric organization, immunostaining for sarcomeric alpha-actinin (FIG. 2). The assay is classed as cell-based, mouse. The following applies: 24 h serum starvation, then 24 h stimulation, endothelin-1 100 nM or phenylephrine 200 μM. As to the method:
as §1

The subject of assay [4] is ES cell-derived cardiomyocytes. Description: Induction of ANF and BNP expression by hypertrophic stimuli (RT-PCR, FIG. 3). The following applies: suspension culture; 24 h serum starvation, then 24 h stimulation; endothelin-1 100 nM, phenylephrine 200 μM, Angiotensin II 100 nM. The assay is classed as cell-based, mouse. On the procedure: Cardiomyocytes differentiated from ES cells were serum-starved for 24 h and subsequently stimulated by endothelin-1 (100 nM; lanes 1, 6, 11), phenylephrine (200 μM; lanes 2, 7, […]) or Angiotensin II (100 nM; lanes 3, 8, 13). Non-stimulated controls were cultured in serum-free medium (lanes 4, 9, 14) or serum-supplemented medium (lanes 5, 10, 15). Subsequently, RNA was extracted and cDNA was synthesized using random hexamer priming. ANF, BNP, and gapdh cDNAs were amplified and PCR products were analyzed by agarose gel electrophoresis. M, size marker. Amplification parameters were as follows. cDNAs were amplified for 32 (ANF and BNP) or 26 (gapdh) PCR cycles consisting each of 1 min at 94° C., 1 min at 56° C., and 1 min at 72° C. The following primers were used: ANF-5′, 5′-[…]-3′ (SEQ ID NO: 14); ANF-3′, 5′-[…]-3′ (SEQ ID NO: 15); BNP-5′, 5′-[…]-3′ (SEQ ID NO: 18); BNP-3′, 5′-[…]-3′ (SEQ ID NO: 19); gapdh-5′, 5′-[…]-3′ (SEQ ID NO: 16); gapdh-3′ 5′-[…]-3′ (SEQ ID NO: 17). Expected PCR product sizes were 468 bp (ANF), 242 bp (BNP), and 349 bp (gapdh).
In a further experiment, the possible induction of an early embryonic gene program upon stimulation by endohelin-1, angiotensin II, or phenylephrine was analysed. To this end, puromycin resistant ES cell-derived cardiomyocytes were obtained as described above; however, after the final […] in puromycin containing medium cells were not transferred to a feeder layer but were kept in suspension culture. Following serum-starvation for 24 h by cultivation in Medium 199, cells were stimulated for 24 h by addition of endothelin-1, phenyleprine, or angiotensin II (Sigma). RNA was extracted and reverse transcribed using standard methods.
Expression of ANF and brain natriuretic peptide (BNP) was analysed by PCR amplification of the respective cDNAs.

The mark [5] stands for this setting: compound 1 μM, stimulus 100 nM ET-1, 24 h, relative to ET-1-stimulated sample without test compound (=100%).
[6] abbreviates: compound 1 μM, stimulus 100 μM PE, 24 h, relative to PE-stimulated sample without test compound (=100%).
The mark [7] stands for this setting: compound 100 nM, stimulus 100 nM ET-1, 24 h, relative to ET-1-stimulated sample without test compound (=100%).
[8] abbreviates: compound 100 nM, stimulus 100 μM PE, 24 h, relative to PE-stimulated sample without test compound (=100%).
Where [9] appears, read: compound 10 μM, stimulus 100 nM ET-1, 24 h, relative to ET-1-stimulated sample without test compound (=100%).
Where [10] appears, read: compound 10 μM, stimulus 100 μM PE, 24 h, relative to PE-stimulated sample without test compound (=100%).

With `CC(C)C[C@@H]1NC(=O)[C@@H](C(C)C)NC(=O)[C@@H]2CCCN2C(=O)[C@@H](CC(=O)O)NC(=O)[C@@H](Cc2c[nH]c3ccccc23)NC1=O` [BQ123] (cyclo(L[dW][dD]P[dV])), in assay [1], the “ANF induction (up-regulation) upon ET-1 stimulation, in words” value is listed as “inhibit” and the “BNP induction (up-regulation) upon ET-1 stimulation, in words” value was “inhibit”. In assay [1] (24 h), the “ANF induction (up-regulation) upon PE stimulation, in words” value is “not”. In assay [1] (setting [5]), the ANF expression worked out at 50% and the BNP expression is recorded as 60%. Further, in assay [1] (setting [6]), the ANF expression was 100% (no effect) and the BNP expression is 100% (no effect).

Turning to `CCCC[C@@H](NC(=O)[C@@H](Cc1cn(C(=O)OC)c2ccccc12)NC(=O)[C@H](CC(C)(C)C)NC(=O)N1[C@H](C)CCC[C@@H]1C)C(=O)O` [BQ788], in assay [1], the “ANF induction (up-regulation) upon ET-1 stimulation, in words” value was “inhibit” and the “BNP induction (up-regulation) upon ET-1 stimulation, in words” value was “inhibit”. Moreover, in assay [1] (24 h), the “ANF induction (up-regulation) upon PE stimulation, in words” value is “not”. In assay [1] (setting [5]), this compound yielded an ANF expression of 70% and a BNP expression of 70%. For the same compound, in assay [1] (setting [6]), the ANF expression is given as 100% (no effect) and the BNP expression is recorded as 100% (no effect).

Take `COC(=O)C1=C(C)NC(C)=C(C(=O)OC)C1c1ccccc1[N+](=O)[O-]` [Nifedipine]: in assay [1] (setting [7]), the ANF expression is on record as 100% (no effect) and the BNP expression is listed as 10%. In addition, in assay [1] (setting [8]), the ANF expression turned out to be 20% and the BNP expression was determined as 20%.

`COc1cc2nc(N3CCN(C(=O)c4ccco4)CC3)nc(N)c2cc1OC` [Prazosin]: in assay [1], the “ANF induction (up-regulation) upon ET-1 stimulation, in words” value is “no inhibition” and the “BNP induction (up-regulation) upon ET-1 stimulation, in words” value is “no inhibition”. In addition, in assay [1] (24 h), the “ANF induction (up-regulation) upon PE stimulation, in words” value was “inhibition” and the “BNP induction (up-regulation) upon PE stimulation, in words” value was “inhibition”. Further, in assay [1] (setting [9]), the ANF expression is on record as 100% (no effect) and the BNP expression is recorded as 100% (no effect). In assay [1] (setting [10]), this compound gave an ANF expression of 40% and a BNP expression of 40%.

Regarding `CN[C@@H]1C[C@H]2O[C@@](C)([C@@H]1OC)n1c3ccccc3c3c4c(c5c6ccccc6n2c5c31)C(=O)NC4` [Staurosporine], in assay [1], the “ANF induction (up-regulation) upon ET-1 stimulation, in words” value is given as “inhibited” and the “BNP induction (up-regulation) upon ET-1 stimulation, in words” value was “inhibited”. Besides, in assay [1] (24 h), the “ANF induction (up-regulation) upon PE stimulation, in words” value was “inhibited” and the “BNP induction (up-regulation) upon PE stimulation, in words” value is listed as “inhibited”. In assay [1] (setting [7]), this compound gave an ANF expression of 30% and a BNP expression of 30%. For the same compound, in assay [1] (setting [8]), the ANF expression was 30% and the BNP expression came out at 30%.

As for `COc1ccc(CCN(C)CCCC(C#N)(c2ccc(OC)c(OC)c2)C(C)C)cc1OC` (stereo not drawn) [Verapamil], in assay [1] (setting [5]), the ANF expression is on record as 100% (no effect) and the BNP expression came out at 30%. In assay [1] (setting [6]), this compound returned an ANF expression of 40% and a BNP expression of 20%.

In the case of `CNC[C@H](O)c1cccc(O)c1` [phenylephrine], the “cardiomyocyte size upon stimulation” value in assay [2] was “increase in size”. Further, the “sarcomeric organization upon stimulation” value in assay [3] is on record as “increase in sarcomeric organization”. In assay [4], the “ANF expression compared to control” value is “increased” and the “BNP expression compared to control” value is recorded as “increased”.

For the compound “Angiotensin II [hypertrophic agonist (Sigma) used as stimulus]”, in assay [4], the “ANF expression compared to control” value was “modest increase” and the “BNP expression compared to control” value is on record as “modest increase”.

“endothelin-1 (CSCSSLMDKECVYFCHLDIIW; ends and bridges not checked; cysteine pairing not given here; UniProt P05305 53-73, looked up) [hypertrophic agonist (Sigma) used as stimulus]”: in assay [2], the “cardiomyocyte size upon stimulation” value is reported as “increase in size”. The “sarcomeric organization upon stimulation” value in assay [3] is recorded as “increase in sarcomeric organization”. Further, in assay [4], the “ANF expression compared to control” value is “increased” and the “BNP expression compared to control” value was “increased”.
